According to US8993320B2, “Culture method to obtain and maintain a pure or enriched population of mammalian neural stem cells and/or neural/progenitor cells that are prone to differentiate into oligodendrocyte-lineage cells in vitro” (priority 2011, dated 2015):

Assays:
Type in all cases: cell-based, human
HFSC cells [1] = assay: Expansion of HFSC cells with growth factors and supplements (live cell count); conditions: for effect on expansion rate: either 50 μM 1-thioglycerol added or PDGF-AA increased to 100 ng/ml (not both), with 10 ng/ml bFGF+10 ng/ml IGF-1, passage 5; for effect on cell status (vacuoles, cell number): supplement to DMEM/F12 with glutamine, pyruvate, B27, 1% NEAA, 1 mM N-acetyl-cysteine, 55 μM β-mercaptoethanol, data not shown; for concentration at which expansion rate / response is saturated: established cell line #2b
Experimental: FIG. 4 illustrates the expansion rate of HFSC cells (cell line #2b) in the presence of different combinations of growth factors: (1): 20 ng/ml PDGF-AA+10 ng/ml bFGF; (2): 20 ng/ml PDGF-AA+10 ng/ml bFGF+5 ng/ml NT-3; (3): 20 ng/ml PDGF-AA+10 ng/ml bFGF+10 ng/ml IGF-1; (4): 20 ng/ml PDGF-AA+10 ng/ml bFGF+5 ng/ml NT-3+10 ng/ml IGF-1. The cells were harvested at day 11 of passage 3 (P3D11) and number of live cells in each condition was counted. Then, they were passaged in the same condition that was used at passage 3 at the same cell density. The cells were harvested at day 8 of passage 4 (P4D8) and number of live cells in each condition was counted (these cells were harvested before they became sub-confluent because they started forming spheres). […] Condition (3) was effective at both passages. FIG. 5 illustrates the effects of high dose of PDGF-AA (100 ng/ml) and 1-thioglycerol on the proliferation of HFSC cells (cell line #2b); cultured in HFSCM1 medium in the presence of the following combinations of growth factors: (1): 20 ng/ml PDGF-AA+10 ng/ml bFGF+10 ng/ml IGF-1; (2): 20 ng/ml PDGF-AA+10 ng/ml bFGF+10 ng/ml IGF-1+50 μM 1-thioglycerol; (3): 100 ng/ml PDGF-AA+10 ng/ml bFGF+10 ng/ml IGF-1; (4): 100 ng/ml PDGF-AA+10 ng/ml bFGF+10 ng/ml IGF-1+50 μM 1-thioglycerol; (5): 100 ng/ml PDGF-AA+10 ng/ml bFGF+50 μM 1-thioglycerol. The cells were harvested at day 7 of passage 5 (these cells were harvested before they became sub-confluent because they started forming spheres as they did at passage 4) and number of live cells in each condition was counted. The combination of 20 ng/ml PDGF-AA+10 ng/ml bFGF was also tested, but the recovered cell number was too low to evaluate (less than 1×10^4 cells which was under the countable range) and its data was eliminated from this figure. The condition (1) could expand cells at passage 3 but couldn't expand cells at passage 5. […] When the addition of 50 μM 1-thioglycerol and the increase of PDGF-AA concentration to 100 ng/ml were combined [condition (4)], the cell expansion rate improved dramatically and the cells could be expanded successfully. […] The cell “expansion rate” refers to the cell number on a particular date divided by the initial cell number at the start of culture. Human 15-week fetal spinal cord was dissected from the spinal column, with the meninges and peripheral nerves removed. The tissue then was dissociated with Accutase and washed and cells obtained from human fetal spinal cord were placed in a culture vessel containing the following growth medium: DMEM/F12 containing 2.5 mM glutamine and 15 mM HEPES, 2% B27 supplement (Invitrogen™), 1% NEAA, 1.5 mM pyruvate (Invitrogen™), 55 μM β-mercaptoethanol (Invitrogen™), 1 mM N-acetyl-L-cysteine (Sigma-Aldrich™), 20 ng/ml PDGF-AA (R&D SYSTEMS™, Inc., Minneapolis, Minn., USA) and 10 ng/ml bFGF (R&D SYSTEMS™). Cells were then placed in an incubator maintained at 37° C., 5% O2, and 5% CO2. bFGF (10 ng/ml) was added daily to the culture medium. Medium was changed every 2-3 days during passage. Based on the preliminary experiments, growing cells were not so many in the presence of PDGF-AA and bFGF and many cells stopped proliferating or died within a few weeks. […] To remove cells that are not responsive to PDGF-AA and bFGF, cells were cultured in an ultra-low adhesion culture plate ([…] Inc., Corning, N.Y., USA). […] Spheres were collected at lower speed of centrifugation (300 rpm for collecting spheres vs. 1,000 rpm for collecting single cells) for medium change and passaging. After 9 days, cells were harvested and passaged onto poly-ornithine-coated culture vessels. After this period, cells were passaged every 7-14 days. […] In addition, the cells began to appear unhealthy, forming vacuoles in their cytoplasm. As mentioned in Example 1, inclusion of PDGF-AA and bFGF in the culture medium supported adequate growth of the HFSC cells initially, but the proliferation rate slowed after 2 passages. […]

HFSC cells [2] = assay: Differentiation of HFSC cells in serum-free medium (GD3/O4 staining, morphology)
Experimental: FIG. 7 depicts spontaneous differentiation of HFSC cells in serum-free medium in slides A-F. Slides A and B are phase contrast images taken with an inverted microscope showing the morphological change of HFSC cells (cell line #2b) at passage 12, day 9 (FIG. 7, slides A & B) after being cultured in HFSCM1 medium supplemented with 20 ng/ml PDGF-AA, 10 ng/ml bFGF, 10 ng/ml IGF-1 and 50 μM 1-thioglycerol (FIG. 7, slide A) or without 1-thioglycerol (FIG. 7, slide B). HFSC cells were differentiated spontaneously without replenishing bFGF between changing medium. Even in the same condition, HFSC cells didn't differentiate if bFGF was replenished everyday and seemed to grow slowly. […] The ratio of oligodendrocyte progenitor cells and other cell types to differentiated cells (oligodendrocyte progenitor cells plus other cell types) were calculated and shown in FIG. 15, slide E. Oligodendrocyte progenitor cell was 99.1%±0.56% of differentiated cells whereas other cell types were 0.9%±0.56% of differentiated cells. […]

HFSC cells [3] = assay: Expansion of HFSC cells with growth factors and supplements (live cell count); conditions: higher concentration of IGF-1 (50-500 ng/ml)

OCC(O)CS (stereo not shown) [1-thioglycerol, reference compound]
effect on expansion rate (HFSC cells [1]): very little positive effect

CC(=O)N[C@@H](CS)C(=O)O [N-acetyl-cysteine, reference compound]
effect on cell status (vacuoles, cell number) (HFSC cells [1]): seemed to improve the cells' status

Nc1ncnc2c1nc(Sc1ccc(Cl)cc1)n2[C@@H]1O[C@@H]2COP(=O)(O)O[C@H]2[C@H]1O [pCPT-cAMP, reference compound]
induction of differentiation (HFSC cells [2]; 100 μM, high density (3×10^4 cells/cm^2)): could induce differentiation

OCCS [β-mercaptoethanol, reference compound]
effect on cell status (vacuoles, cell number) (HFSC cells [1]): seemed to improve the cells' status

basic fibroblast growth factor [bFGF]
concentration at which expansion rate / response is saturated (HFSC cells [1]): 20 ng/mL

insulin-like growth factor-1 [IGF-1]
concentration at which expansion rate / response is saturated (HFSC cells [1]): 40 ng/mL
differentiated cells seen (HFSC cells [3]): around 1%

platelet derived growth factor-AA [PDGF-AA]
effect on expansion rate (HFSC cells [1]): very little positive effect
concentration at which expansion rate / response is saturated (HFSC cells [1]): 10 to 20 ng/mL
effect on spontaneous differentiation (HFSC cells [2]; 40 ng/ml or higher PDGF-AA): blocked to differentiate
